Data taken from patent US9169254B2, “Spiroimidazolone derivative” (Chugai Seiyaku Kabushiki Kaisha, priority 2009, dated 2015).

Target: T1, human PTH1 receptor (Homo sapiens, UniProt Q03431)
T1 sequence (Q03431 27-593): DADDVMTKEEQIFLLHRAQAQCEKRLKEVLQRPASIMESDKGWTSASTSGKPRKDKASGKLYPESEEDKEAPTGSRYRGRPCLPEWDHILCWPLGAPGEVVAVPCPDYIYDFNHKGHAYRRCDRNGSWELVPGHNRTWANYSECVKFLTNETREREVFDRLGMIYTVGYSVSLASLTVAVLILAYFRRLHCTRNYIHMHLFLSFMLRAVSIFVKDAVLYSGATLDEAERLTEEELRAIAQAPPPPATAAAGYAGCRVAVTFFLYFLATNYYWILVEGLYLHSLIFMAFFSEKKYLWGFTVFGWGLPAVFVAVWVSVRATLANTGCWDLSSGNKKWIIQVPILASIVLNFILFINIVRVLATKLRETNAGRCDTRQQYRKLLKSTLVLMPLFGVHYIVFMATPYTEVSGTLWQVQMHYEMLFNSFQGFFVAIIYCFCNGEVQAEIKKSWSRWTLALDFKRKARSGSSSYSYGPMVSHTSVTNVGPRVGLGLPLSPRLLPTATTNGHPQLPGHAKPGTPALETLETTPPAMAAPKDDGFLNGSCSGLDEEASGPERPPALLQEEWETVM
Test: In vitro cAMP signal activity in HKRK-B7 cells (LLC-PK1 cells overexpressing the human PTH1 receptor)
Type: cell-based
Settings: HKRK-B7 cells; compound at 1×10^−3 M; cAMP produced as percentage of that produced by hPTH(1-34) at 100 nM

| Compound | cAMP production activity (%) |
| --- | --- |
| Cc1cc(CN(C)C(N)=O)cc(C)c1CCS(=O)(=O)N1CCC2(CC1)N=C(C1CCC(C)CC1)NC2=O (stereo not drawn) [Compound 1390, 1-(3,5-dimethyl-4-{2-[2-(4-methyl-cyclohexyl)-4-oxo-1,3,8-triaza-spiro[4.5]dec-1-ene-8-sulfonyl]-ethyl}-benzyl)-1-methyl-urea] | 69 |
| O=C1NC(c2cccc(C(F)(F)F)c2)=NC12CCN(S(=O)(=O)c1ccc(Br)s1)CC2 [Compound 69, 8-(5-bromo-thiophene-2-sulfonyl)-2-(3-trifluoromethyl-phenyl)-1,3,8-triaza-spiro[4.5]dec-1-en-4-one] | 61 |
| CC(=O)NC(C)c1ccc(/C=C/S(=O)(=O)N2CCC3(CC2)N=C(C2CCCCC2)NC3=O)cc1 (stereo not drawn) [Compound 482, N-(1-{4-[(E)-2-(2-cyclohexyl-4-oxo-1,3,8-triaza-spiro[4.5]dec-1-ene-8-sulfonyl)-vinyl]-phenyl}-ethyl)-acetamide] | 38 |
| Cc1cc(C(=O)N2CCC(O)(C(F)(F)F)CC2)cc(C)c1/C=C/S(=O)(=O)N1CCC2(CC1)N=C(C1CCCCC1)NC2=O [Compound 1006, 2-Cyclohexyl-8-{(E)-2-[4-(4-hydroxy-4-trifluoromethyl-piperidine-1-carbonyl)-2,6-dimethyl-phenyl]-ethenesulfonyl}-1,3,8-triaza-spiro[4.5]dec-1-en-4-one] | 52 |
| Cc1cc(N(C)C(N)=O)cc(C)c1CCS(=O)(=O)N1CCC2(CC1)N=C(C1CC(C)(C)CC(C)(C)C1)NC2=O [Compound 1298, 1-(3,5-Dimethyl-4-{2-[4-oxo-2-(3,3,5,5-tetramethyl-cyclohexyl)-1,3,8-triaza-spiro[4.5]dec-1-ene-8-sulfonyl]-ethyl}-phenyl)-1-methyl-urea] | 117 |
| Nc1cccc(CCCS(=O)(=O)N2CCC3(CC2)N=C(C2CCCCC2)NC3=O)c1 [Compound 328, 8-[3-(3-Amino-phenyl)-propane-1-sulfonyl]-2-cyclohexyl-1,3,8-triaza-spiro[4.5]dec-1-en-4-one] | 41 |
| Cc1cc(N(C)C(N)=O)cc(C)c1/C=C/S(=O)(=O)N1CCC2(CC1)N=C(CCCCCCCCC(F)F)NC2=O [Compound 1321, 1-(4-{(E)-2-[2-(9,9-Difluoro-nonyl)-4-oxo-1,3,8-triaza-spiro[4.5]dec-1-ene-8-sulfonyl]-vinyl}-3,5-dimethyl-phenyl)-1-methyl-urea] | 63 |
| Cc1ccccc1CNS(=O)(=O)N1CCC2(CC1)N=C(C1CCC(C)CC1)NC2=O (stereo not drawn) [Compound 1372, 2-(4-Methyl-cyclohexyl)-4-oxo-1,3,8-triaza-spiro[4.5]dec-1-ene-8-sulfonic acid 2-methyl-benzylamide] | 36 |
| O=C1NC(C2CCCCC2)=NC12CCN(S(=O)(=O)CCc1cccc3c1ccn3C[C@H](O)[C@@H](O)COCc1ccccc1)CC2 [Compound 1393, 8-{2-[1-((2S,3S)-4-benzyloxy-2,3-dihydroxy-butyl)-1H-indol-4-yl]-ethanesulfonyl}-2-cyclohexyl-1,3,8-triaza-spiro[4.5]dec-1-en-4-one] | 84 |
| CC(=O)NCc1cc(C)c(CCS(=O)(=O)N2CCC3(CC2)N=C(C2CCC(CCC(F)(F)F)CC2)NC3=O)c(C)c1 (stereo not drawn) [Compound 772, N-[3,5-dimethyl-4-(2-{4-oxo-2-[4-(3,3,3-trifluoro-propyl)-cyclohexyl]-1,3,8-triaza-spiro[4.5]dec-1-ene-8-sulfonyl}-ethyl)-benzyl]-acetamide] | 69 |
| Cc1cc(C(=O)N2CCCC2)cc(C)c1/C=C/S(=O)(=O)N1CCC2(CC1)N=C(c1cccc(C(F)(F)F)c1)NC2=O [Compound 388, 8-{(E)-2-[2,6-dimethyl-4-(pyrrolidine-1-carbonyl)-phenyl]-ethenesulfonyl}-2-(3-trifluoromethyl-phenyl)-1,3,8-triaza-spiro[4.5]dec-1-en-4-one] | 84 |
| Cc1cc(OCCC(O)CO)cc(C)c1/C=C/S(=O)(=O)N1CCC2(CC1)N=C(c1ccc(F)c(C(F)(F)F)c1)NC2=O (stereo not drawn) [Compound 639, 8-{(E)-2-[4-(3,4-Dihydroxy-butoxy)-2,6-dimethyl-phenyl]-ethenesulfonyl}-2-(4-fluoro-3-trifluoromethyl-phenyl)-1,3,8-triaza-spiro[4.5]dec-1-en-4-one] | 101 |
| CCCCCCCCCC1=NC2(CCN(S(=O)(=O)CCc3ccc(N4C(=O)CC[C@H]4CO)cc3C)CC2)C(=O)N1 [Compound 670, 8-{2-[4-((S)-2-Hydroxymethyl-5-oxo-pyrrolidin-1-yl)-2-methyl-phenyl]-ethanesulfonyl}-2-nonyl-1,3,8-triaza-spiro[4.5]dec-1-en-4-one] | 123 |
| O=C1NC(C2CCCCC2)=NC12CCN(S(=O)(=O)CCc1ccc3[nH]ccc3c1)CC2 [Compound 269, 2-cyclohexyl-8-[2-(1H-indol-5-yl)-ethanesulfonyl]-1,3,8-triaza-spiro[4.5]dec-1-en-4-one] | 43 |
| COC(=O)NCCc1ccc(/C=C/S(=O)(=O)N2CCC3(CC2)N=C(C2CCCCC2)NC3=O)cc1 [Compound 566, (2-{4-[(E)-2-(2-cyclohexyl-4-oxo-1,3,8-triaza-spiro[4.5]dec-1-ene-8-sulfonyl)-vinyl]-phenyl}-ethyl)-carbamic acid methyl ester] | 19 |
| Cc1cc(N(C)C(N)=O)cc(C)c1CCS(=O)(=O)N1CCC2(CC1)N=C(c1cccc(OCCCC(F)(F)C(F)(F)F)c1)NC2=O [Compound 1135, 1-[3,5-Dimethyl-4-(2-{4-oxo-2-[3-(4,4,5,5,5-pentafluoro-pentyloxy)-phenyl]-1,3,8-triaza-spiro[4.5]dec-1-ene-8-sulfonyl}-ethyl)-phenyl]-1-methyl-urea] | 84 |
| CCCCC1CCN(C2=NC3(CCN(S(=O)(=O)CCc4ccc(C(=O)N(C)C)cc4C)CC3)C(=O)N2)CC1 [Compound 1403, 4-{2-[2-(4-Butyl-piperidin-1-yl)-4-oxo-1,3,8-triaza-spiro[4.5]dec-1-ene-8-sulfonyl]-ethyl}-3,N,N-trimethyl-benzamide] | 66 |
| CC(C)COC(=O)NCc1ccc(/C=C/S(=O)(=O)N2CCC3(CC2)N=C(C2CCCCC2)NC3=O)cc1 [Compound 486, {4-[(E)-2-(2-cyclohexyl-4-oxo-1,3,8-triaza-spiro[4.5]dec-1-ene-8-sulfonyl)-vinyl]-benzyl}-carbamic acid isobutyl ester] | 59 |
| Cc1cc2ccc1CCS(=O)(=O)N1CCC3(CC1)N=C(NC3=O)c1cc(cc(C(F)(F)F)c1)OCC/C=C/COCCNC2=O [Compound 1426] | 5.4 |
| Cc1cc(S(=O)(=O)NCC(N)=O)ccc1CCS(=O)(=O)N1CCC2(CC1)N=C(c1cccc(OC(F)(F)F)c1)NC2=O [Compound 675, 2-(3-Methyl-4-{2-[4-oxo-2-(3-trifluoromethoxy-phenyl)-1,3,8-triaza-spiro[4.5]dec-1-ene-8-sulfonyl]-ethyl}-benzenesulfonylamino)-acetamide] | 68 |
| O=C1NC(c2ccc(Cl)cc2Cl)=NC12CCN(S(=O)(=O)c1ccccc1C(F)(F)F)CC2 [Compound 45, 2-(2,4-dichloro-phenyl)-8-(2-trifluoromethyl-benzenesulfonyl)-1,3,8-triaza-spiro[4.5]dec-1-en-4-one] | 22 |
| Cc1cc(N(C)C(=O)OC(C)(C)C)cc(C)c1CCS(=O)(=O)N1CCC2(CC1)N=C(C(C)(F)F)NC2=O [Compound 1034, (4-{2-[2-(1,1-difluoro-ethyl)-4-oxo-1,3,8-triaza-spiro[4.5]dec-1-ene-8-sulfonyl]-ethyl}-3,5-dimethyl-phenyl)-methyl-carbamic acid tert-butyl ester] | 54 |
| Cc1cc(C(=O)N(C)C)ccc1CCS(=O)(=O)N1CCC2(CC1)N=C(C#Cc1ccccc1)NC2=O [Compound 893, 3,N,N-trimethyl-4-[2-(4-oxo-2-phenylethynyl-1,3,8-triaza-spiro[4.5]dec-1-ene-8-sulfonyl)-ethyl]-benzamide] | 14 |
| Cc1cc(C(F)(F)F)ccc1C1=NC2(CCN(S(=O)(=O)/C=C/c3c(C)cc(C(=O)N4CCC(O)(CF)CC4)cc3C)CC2)C(=O)N1 [Compound 1259, 8-{(E)-2-[4-(4-fluoromethyl-4-hydroxy-piperidine-1-carbonyl)-2,6-dimethyl-phenyl]-ethenesulfonyl}-2-(2-methyl-4-trifluoromethyl-phenyl)-1,3,8-triaza-spiro[4.5]dec-1-en-4-one] | 101 |
| CC(=O)N(CCO)c1ccc(C)c(CCS(=O)(=O)N2CCC3(CC2)N=C(c2cccc(OC(F)(F)F)c2)NC3=O)c1 [Compound 326, N-(2-Hydroxy-ethyl)-N-(4-methyl-3-{2-[4-oxo-2-(3-trifluoromethoxy-phenyl)-1,3,8-triaza-spiro[4.5]dec-1-ene-8-sulfonyl]-ethyl}-phenyl)-acetamide] | 76 |
| Cc1cc2ccc1CCS(=O)(=O)N1CCC3(CC1)N=C(NC3=O)c1cc(cc(C(F)(F)F)c1)OCCC(O)C(O)CCCN(C)C2=O (stereo not drawn) [Compound 1430] | 13 |
| COc1ccc(C2=NC3(CCN(S(=O)(=O)CCc4ccc(C(=O)N(C)C)cc4C)CC3)C(=O)N2)cc1C(F)(F)F [Compound 144, 4-{2-[2-(4-methoxy-3-trifluoromethyl-phenyl)-4-oxo-1,3,8-triaza-spiro[4.5]dec-1-ene-8-sulfonyl]-ethyl}-3,N,N-trimethyl-benzamide] | 59 |
